Assay results published in US6362369B1, “Phthalic acid diamide derivatives fluorine-containing aniline compounds as starting material, agricultural and horticultural insecticides, and a method for application of the insecticides” (Nihon Nohyaku Co., Ltd., priority 1997, dated 2002).

Columns and labels:
[1] = test system: diamondback moth (Plutella xylostella); test: Insecticidal effect on diamondback moth (Test Example 1); type: in vivo; conditions: mortality judged according to the criterion shown in Test Example 1
Method in brief: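 Eggs laid by adult moths on Chinese cabbage seedlings, which were immersed in test solution, air-dried and kept at 25 °C. Hatched insects counted 6 days after immersion and mortality calculated, with effect graded by criterion; triplicate groups of 10 insects.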

[2] = test system: rice leafroller (Cnaphalocrocis medinalis); test: Insecticidal effect on rice leafroller (Test Example 3); type: in vivo; conditions: 500 ppm, rice lamina dip, third-instar larvae, four days after inoculation, 25° C., humidity 70%
Method in brief: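 Groups of 10 third-instar larvae, in triplicate, are placed on air-dried lamina resting on wet filter paper. Incubation runs four days at 25° C with 70% humidity before survivors and dead are tallied.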

Structure (SMILES): Cc1cc(Cl)ccc1NC(=O)c1cccc(C(=O)NC(C)C)c1C(=O)NC(C)C [compound 803]
- Insecticidal effect on diamondback moth (Test Example 1), judged grade [1]: A (100)
- Insecticidal effect on rice leafroller (Test Example 3), judged grade [2]: A (100)

Structure (SMILES): Cc1ccc(Cl)cc1NC(=O)c1ccc2ccccc2c1C(=O)NC(C)C [compound 821]
- Insecticidal effect on diamondback moth (Test Example 1), judged grade [1]: A (100)
- Insecticidal effect on rice leafroller (Test Example 3), judged grade [2]: A (100)

Structure (SMILES): Cc1ccc(Cl)cc1NC(=O)c1cc2ccccc2cc1C(=O)NC(C)C [compound 822]
- Insecticidal effect on diamondback moth (Test Example 1), judged grade [1]: D (79-50)
- Insecticidal effect on rice leafroller (Test Example 3), judged grade [2]: D (79-50)

Structure (SMILES): Cc1cc(Cl)ccc1NC(=O)c1ccccc1C(=O)N(C)C(C)C [compound 826]
- Insecticidal effect on diamondback moth (Test Example 1), judged grade [1]: A (100)
- Insecticidal effect on rice leafroller (Test Example 3), judged grade [2]: A (100)

Structure (SMILES): CC(C)CNC(=O)c1ccccc1C(=O)Nc1ccc(C(F)(F)F)cc1 [compound 833]
- Insecticidal effect on diamondback moth (Test Example 1), judged grade [1]: A (100)
- Insecticidal effect on rice leafroller (Test Example 3), judged grade [2]: D (79-50)

Structure (SMILES): CCC(C)NC(=O)c1c(Cl)cccc1C(=O)Nc1ccc(OC(F)F)cc1C (centres unmarked) [compound 836]
- Insecticidal effect on diamondback moth (Test Example 1), judged grade [1]: A (100)
- Insecticidal effect on rice leafroller (Test Example 3), judged grade [2]: A (100)

Structure (SMILES): CCC(C)NC(=O)c1c(C(=O)Nc2ccc(OC(F)F)cc2C)cccc1[N+](=O)[O-] (centres unmarked) [compound 839]
- Insecticidal effect on diamondback moth (Test Example 1), judged grade [1]: A (100)
- Insecticidal effect on rice leafroller (Test Example 3), judged grade [2]: C (89-80)

Structure (SMILES): CC(C)(C)NC(=O)c1ccccc1C(=O)Nc1ccccc1 [compound 840]
- Insecticidal effect on diamondback moth (Test Example 1), judged grade [1]: A (100)
- Insecticidal effect on rice leafroller (Test Example 3), judged grade [2]: D (79-50)

Structure (SMILES): Cc1cc(OC(F)F)ccc1NC(=O)c1c(Cl)cccc1C(=O)NC1CC1 [compound 850]
- Insecticidal effect on diamondback moth (Test Example 1), judged grade [1]: A (100)
- Insecticidal effect on rice leafroller (Test Example 3), judged grade [2]: A (100)

Structure (SMILES): Cc1cc(OC(F)F)ccc1NC(=O)c1cccc([N+](=O)[O-])c1C(=O)NC1CC1 [compound 852]
- Insecticidal effect on diamondback moth (Test Example 1), judged grade [1]: A (100)
- Insecticidal effect on rice leafroller (Test Example 3), judged grade [2]: D (79-50)

Structure (SMILES): Cc1cc(OC(F)F)ccc1NC(=O)c1cccc([N+](=O)[O-])c1C(=O)NC1CCCC1 [compound 856]
- Insecticidal effect on diamondback moth (Test Example 1), judged grade [1]: A (100)
- Insecticidal effect on rice leafroller (Test Example 3), judged grade [2]: D (79-50)

Structure (SMILES): Cc1cc(OC(F)F)ccc1NC(=O)c1cccc([N+](=O)[O-])c1C(=O)NCCF [compound 863]
- Insecticidal effect on diamondback moth (Test Example 1), judged grade [1]: A (100)
- Insecticidal effect on rice leafroller (Test Example 3), judged grade [2]: B (99-90)

Structure (SMILES): C=CCNC(=O)c1c(C(=O)Nc2ccc(OC(F)F)cc2C)cccc1[N+](=O)[O-] [compound 867]
- Insecticidal effect on diamondback moth (Test Example 1), judged grade [1]: A (100)
- Insecticidal effect on rice leafroller (Test Example 3), judged grade [2]: C (89-80)

Structure (SMILES): COCCNC(=O)c1c(C(=O)Nc2ccc(OC(F)F)cc2C)cccc1[N+](=O)[O-] [compound 872]
- Insecticidal effect on diamondback moth (Test Example 1), judged grade [1]: A (100)
- Insecticidal effect on rice leafroller (Test Example 3), judged grade [2]: C (89-80)

Structure (SMILES): Cc1cc(OC(F)F)ccc1NC(=O)c1cccc([N+](=O)[O-])c1C(=O)NC(C)c1ccccc1 (centres unmarked) [compound 879]
- Insecticidal effect on diamondback moth (Test Example 1), judged grade [1]: A (100)
- Insecticidal effect on rice leafroller (Test Example 3), judged grade [2]: A (100)

Structure (SMILES): CC(C)NC(=O)c1ccccc1C(=O)Nc1ccc(C(F)(F)C(F)(F)F)cc1 [compound 889]
- Insecticidal effect on diamondback moth (Test Example 1), judged grade [1]: A (100)
- Insecticidal effect on rice leafroller (Test Example 3), judged grade [2]: A (100)

Structure (SMILES): CC(C)NC(=O)c1cccc(F)c1C(=O)Nc1ccc(C(F)(F)C(F)(F)F)cc1 [compound 892]
- Insecticidal effect on diamondback moth (Test Example 1), judged grade [1]: A (100)
- Insecticidal effect on rice leafroller (Test Example 3), judged grade [2]: A (100)

Structure (SMILES): CC(C)NC(=O)c1c(Cl)cccc1C(=O)Nc1ccc(C=C(Cl)C(F)(F)F)cc1 [compound 911]
- Insecticidal effect on diamondback moth (Test Example 1), judged grade [1]: A (100)
- Insecticidal effect on rice leafroller (Test Example 3), judged grade [2]: D (79-50)

Structure (SMILES): CCc1ccc(Cl)c(CC)c1NC(=O)c1cccc(I)c1C(=O)NC(C)C [compound 925]
- Insecticidal effect on diamondback moth (Test Example 1), judged grade [1]: A (100)
- Insecticidal effect on rice leafroller (Test Example 3), judged grade [2]: A (100)
